Several values for one entry are separate records, joined by “and”; a condition that tells them apart may be missing. Equal entries are not always repeated.
System: P. falciparum 3D7 growth, pLDH absorbance
Test: blood-stage malaria parasite growth potency – strain 3D7, dose response (AID 2305)

Compound | IC50
O=C(Nc1cccc(-c2cccc(-c3nc4ccccc4[nH]3)c2)c1)N[C@@H]1C[C@H]1c1ccccc1 | 1070 nM and 900 nM
CNCCNCc1ccc(-c2ccc(-c3nc4ccc(C(F)(F)F)cc4[nH]3)cc2)cc1 | 310 nM
Cc1ccc(CN2CCN(c3cc4c(cc3Cl)CCN4C(=O)Cc3ccc(NC(=O)c4ccc(C(F)(F)F)cc4)cc3)CC2)cc1 | 940 nM
CCN1CCc2c1cc(C(=O)N[C@@H](Cc1ccccc1)[C@H](O)CNC(C)(C)c1cccc(C(F)(F)F)c1)cc2N1CCCCS1(=O)=O | 110 nM
Cc1cccc2[nH]c(-c3ccc(-c4cccc(CN5CCN(CCN6CCOCC6)CC5)c4)s3)nc12 | 150 nM
Cc1cc(N[C@@H](CC(C)C)C(=O)NCCOc2ccccc2)nc(NCCc2ccccc2)n1 | 1510 nM
Cn1cc(CCNc2ccnc(NCCc3coc4ccccc34)n2)c2ccccc21 | 1060 nM
CN(c1ccc(NC(=O)Nc2cc(C(F)(F)F)ccc2F)cc1)c1ccnc(NCCN2CCCC2)n1 | 1150 nM
C=CCO[C@@H]1O[C@H](COC(c2ccccc2)(c2ccccc2)c2ccccc2)[C@@H](OC(C)=O)[C@H](OC(C)=O)[C@H]1NC(C)=O | 660 nM
CC[C@H]1CN2CC[C@@H]1C[C@@H]2[C@@H](O)c1cc(-c2ccc(F)cc2)nc2ccc(OC)cc12 | 110 nM
O=C(Cc1cccc2ccccc12)N1CCc2cc3nccc(N4CCN5CCC[C@H]5C4)c3cc21 | 780 nM
O=C(N[C@@H](Cc1ccccc1)C(=O)NCc1cccc(C(F)(F)F)c1)c1ccc(O)c(-c2ccc(Cl)c(Cl)c2)c1 | 700 nM
CCn1ccc2c(N3CCCS3(=O)=O)cc(C(=O)N[C@@H](Cc3ccccc3)[C@H](O)CNC(C)(C)CCCC(C)C)cc21 | 490 nM
CC1CCN(Cc2ccc(NC(=O)c3cc4ccc5cccnc5c4[nH]3)cc2)CC1 | 780 nM
O=C(NC1CC1)c1ccc(N2CCC(Cc3ccccc3)CC2)nc1 | 760 nM
COc1cc(C=CC(=O)NC2CCC(CN3CCC(c4c[nH]c5ccccc45)CC3)CC2)cc(OC)c1 (stereo unspecified) | 810 nM
COc1cc2c(cc1N1C[C@@H](C)N[C@@H](C)C1)N(C(=O)c1ccc(-c3ccc(-c4ncc[nH]4)cc3C)cc1)CC2 | 720 nM
Cc1ccc(NC(=O)c2ccc3ncccc3c2)cc1OC1CCN(C(C)C)C1 (stereo unspecified) | 990 nM
NOCCCOc1ccccc1 | 320 nM
O=C(Nc1cccc(-c2csc(-c3nc4ccccc4[nH]3)c2)c1)c1ccoc1 | 210 nM
Cc1[nH]c(C)c(-c2ccc(Oc3ccc(Cl)cc3)cc2)c(=O)c1Cl | 790 nM
Nc1ccc2nc(C=Cc3ccc(Cl)cc3)[nH]c2c1 | 940 nM
C=Cc1cc(NC(=O)N2CCc3cc(OC)c(C(F)(F)F)cc32)cc(-c2cccnc2)c1 | 700 nM
CCN(CC)CCN(Cc1ccc(-c2ccc(C(F)(F)F)cc2)cc1)C(=O)Cn1c(CCc2cc(F)c(F)c(F)c2)nc(=O)c2ccccc21 | 830 nM

Compound | IC50
COc1ccc2nc(C)cc(NN=Cc3ccccc3[N+](=O)[O-])c2c1 | 180 nM
N#Cc1ccc(CCNc2nccc(-c3cccc(CN4CCNCC4)c3)n2)cc1 | 1250 nM
O=C1CCCN1CCCNCc1ccc(-c2cccc(-c3nc4ccccc4[nH]3)c2)cc1 | 1020 nM
Cc1c2c(nn1-c1ccccc1)C(c1ccccc1)N(c1ccccc1)C2=O (stereo unspecified) | 150 nM
CC(=O)Nc1cccc(C(=O)Nc2cccc(-c3ccc(-c4nc5c(C)cccc5[nH]4)s3)c2)c1 | 770 nM
COc1cccc(CCc2c(CCNCCCCCCNCCc3ccccc3)ccc(OC)c2OC)c1 | 720 nM
COc1ccc2ccc(OC)c(CNCCCCCCNCc3c(OC)ccc4ccc(OC)cc34)c2c1 | 700 nM
CCCNCc1ccc(-c2ccc(CN(Cc3cnc(C)cn3)C(=O)CC#N)cc2)nc1 | 1220 nM
O=C(Nc1cccc(-c2nn3ccccc3c2-c2ccnc(Nc3cccc(C(F)(F)F)c3)n2)c1)c1c(F)cccc1F | 630 nM
O=C1C(c2ccccc2)=C(Nc2ccc(Cl)cc2)c2ccccc21 | 610 nM
CS(=O)(=O)c1ccc2c(c1)CCN(CCC1CCC(NC(=O)c3cc4cccc(Br)c4[nH]3)CC1)CC2 (stereo unspecified) | 1040 nM
CC(=O)N(C)c1cccc(CNc2cc(C)nc(Nc3ccc(C)cc3)n2)c1 | 1000 nM
CC(=O)Nc1ccc([N+](=O)[O-])c2c(Br)cccc12 | 640 nM
NC1=Nc2ccc(Cl)cc2C1(O)c1ccccc1 (stereo unspecified) | 880 nM
Cn1cncc1C(=O)Nc1cccc(-c2ccc(-c3nc4ccccc4[nH]3)s2)c1 | 800 nM
O=C(Nc1cccc(CN2CCN(Cc3ccc(O)cc3)CC2)c1)c1cc2ccccc2o1 | 1180 nM
O=C(Nc1cccc(-c2ccc(-c3nc4ccc(C(F)(F)F)cc4[nH]3)cc2)c1)c1cnc[nH]1 | 970 nM
O=C(Nc1ccc(C(=O)Oc2ccc3ccccc3c2)cc1)N[C@@H](Cc1ccc(O)cc1)C(=O)NC1CCN(Cc2ccc(O)cc2)C1 (stereo partly specified) | 1060 nM
CCn1c2c(c(=N)c3ccccc31)CCC2 | 500 nM
CC1CCN(C(=O)C(Cc2c[nH]c3ccccc23)NS(=O)(=O)c2ccc(Cl)cc2)CC1 (stereo unspecified) | 720 nM
Cc1ccc(Nc2nc(NN=Cc3cccc(O)c3)nc(Nc3ccc([N+](=O)[O-])cc3)n2)cc1C | 740 nM
Cc1cc(C)c(C)c(S(=O)(=O)N2CCCCC(c3ccc(F)c(F)c3)=N2)c1C | 710 nM
O=C(Nc1cccc(CN2CCCN(Cc3ccc(O)cc3)CC2)c1)c1cc(F)cc(F)c1 | 660 nM
Oc1cc(Nc2ccnc3cc(-c4ccc(CN5CCCCC5)o4)ccc23)c(Cl)cc1F | 120 nM

Compound | IC50
CSc1ccc(NC(=O)Nc2cc(C)nc3ccccc23)cc1Br | 780 nM
CN(c1ccccc1)S(=O)(=O)c1cccc(NC(=O)c2ccc(-n3ccnc3)c([N+](=O)[O-])c2)c1 | 1130 nM
CCN1CCC(N(Cc2ccc(-c3ccc(C(F)(F)F)cc3)cc2)C(=O)Cn2c(CCc3cccc(F)c3F)cc(=O)c3cn(C)nc32)CC1 | 240 nM
NOCCCCOc1ccccc1 | 180 nM
Cc1ccccc1C1CCN(C2CCC(NC(=O)/C=C/c3cc(F)ccc3F)CC2)CC1 (stereo unspecified) | 1040 nM
COc1ccc(-c2nc(NC(=O)CS(=O)(=O)c3ccc(OC)cc3)sc2C)cc1 | 300 nM
Cc1[nH]c(C)c(-c2ccc(Oc3ccccc3)cc2)c(=O)c1Br | 50 nM
COc1ccc2nc3cc(Cl)ccc3c(NCCc3ccccc3)c2c1 | 950 nM
CN1CCC(NCc2ccc(-c3ccc(S(=O)(=O)NC4CCC4)s3)cc2)CC1 | 850 nM
Cc1cccc(CN2CCC(C(=O)Nc3ccc(-c4nc5ccccc5[nH]4)cc3)CC2)n1 | 920 nM
CN1CCC(NCc2ccc(-c3cccc(S(=O)(=O)NCCc4ccccn4)c3)cc2)CC1 | 990 nM
Cc1cc(N[C@@H](CC(C)C)C(=O)NCCOc2ccccc2)nc(NCCOc2ccccc2)n1 | 1490 nM
COC(=O)c1ccc(CC(C)NCC(O)c2cccc(C(F)(F)F)c2)c(Cl)c1 (stereo unspecified) | 850 nM
CCOc1ccc2nc(C)cc(NN=Cc3cccc([N+](=O)[O-])c3)c2c1 | 660 nM
COc1cc(C(=O)Nc2cccc(-c3nc4ccccc4[nH]3)c2)cc(OC)c1OC | 720 nM
Cc1cc(NCCc2cccc(F)c2)nc(/N=C(\N)Nc2cccc(C(F)(F)F)c2)n1 | 150 nM
COc1cc(CN2CCN(c3ccnc(N(C)C4CCN(C)CC4)n3)CC2)cc(Cl)c1O | 780 nM
CN1CCN(Cc2ccc(-c3ccc4c(Nc5cc(O)c(F)cc5Cl)ccnc4c3)o2)CC1 | 130 nM
O=C(Nc1cccc(-c2cccc(-c3nc4ccccc4[nH]3)c2)c1)c1ccoc1 | 740 nM
Cc1nc2ccc3ccc(CNc4ccc(C(=O)N[C@@H](CCC(=O)O)C(=O)N[C@@H](Cc5cccs5)C(=O)O)c(F)c4)cc3c2c(=O)[nH]1 | 790 nM
Cc1cccc2[nH]c(-c3cccc(-c4ccc(NC(=O)NCc5ccccc5)cc4)c3)nc12 | 230 nM
NC(=O)c1cccc(CNC(=O)NC[C@H]2CN(Cc3ccc(Cl)c(Cl)c3)CCO2)c1 | 590 nM
CC1CCCN1Cc1ccc(-c2ccc3c(=O)cc(CCc4cccc(F)c4F)n(CC(=O)N(C)Cc4ccc(-c5ccc(C(F)(F)F)cc5)cc4)c3n2)cc1 (stereo unspecified) | 820 nM
CCn1cc(-c2nc(-c3cc(OC)cc(OC)c3)no2)c(=O)c2ccccc21 | 340 nM

Compound | IC50
COc1cccc(C(=O)Nc2sc3c(c2C(N)=O)CCCC3)c1OC | 930 nM
CCn1c(-c2ccccc2)cc2nnc3ccccc3c21 | 770 nM
CC(C)c1ccc(NC(=O)c2cccc(CN3CCCN(Cc4cccc(C#N)c4)CC3)c2)cc1 | 950 nM
CCCN1CCN(CCCCNc2c3ccccc3nc3ccccc23)CC1 | 410 nM
FC(F)(F)c1ccc2nc(-c3cccc(-c4ccc(CNCCN5CCNCC5)cc4)c3)[nH]c2c1 | 860 nM
CC[C@@H]([C@@H](Cc1cc2ccccc2s1)C(=O)N[C@@H](CCCCNC(=O)OCc1ccccc1)C(=O)Nc1ccccn1)N(O)C=O | 230 nM
O=C(Nc1cccc(C(F)(F)F)c1)Nc1cc(F)c(F)cc1Cl | 1960 nM
C=CCOC(=O)N1CCC(CNCc2ccc(-c3cccc(-c4nc5ccccc5[nH]4)c3)cc2)C1 (stereo unspecified) | 250 nM
Cc1sc2nc(CSc3ccccc3)nc(N3CCN(CC(=O)N4CCCC4)CC3)c2c1C | 1260 nM
COc1cccc(C2=CC(C)(C)Oc3cc(OCCN(C)C)ccc32)c1 | 790 nM
Cc1cc(N[C@@H](Cc2ccccc2)C(=O)NCCOc2ccccc2)nc(Nc2ccccc2)n1 | 870 nM
Cc1nnsc1C(=O)Nc1cccc(-c2ccc(-c3nc4c(C)cccc4[nH]3)s2)c1 | 1120 nM
O=C(Nc1cccc(CN2CCCN(Cc3ccc4c(c3)OCO4)CC2)c1)c1cc2ccccc2s1 | 990 nM
CCCCCCCc1c(C)[nH]c2ccccc2c1=O | 210 nM
O=C(N[C@@H](CC1CCCCC1)C(=O)NCc1cccc(C(F)(F)F)c1)c1ccc(O)c(-c2ccc(Cl)c(Cl)c2)c1 | 220 nM
O=C(NC1CCCCN(Cc2ccccc2O)C1)c1cc(F)cc(F)c1 (stereo unspecified) | 1170 nM
CCC[C@@H]1CCN[C@H]([C@H](O)c2ccnc3ccc(OC)cc23)C1 | 730 nM
Cc1ccc(C(=O)Nc2ccc(F)c(F)c2F)cc1S(=O)(=O)N1CCCCC1 | 760 nM
COc1cc(CNC(=S)NN=C(C)c2ccccn2)cc(OC)c1OC | 400 nM
O=C(NCC1CCN(CCN2CCc3ccc4c(c3C2)OCO4)CC1)c1ccc(-c2ccc(C(F)(F)F)cc2)cc1 | 860 nM
O=C(Nc1cccc(-c2ccc(-c3nc4ccc(F)cc4[nH]3)cc2)c1)c1csnn1 | 280 nM
CN(CCCCCN1CCC(NC(=O)Nc2ccc(C(F)(F)F)cc2)C1)C(=O)/C=C/c1ccc(Cl)c(Cl)c1 (stereo unspecified) | 770 nM
COc1ccc(CCNC(=O)c2cc3c(=O)n4cccc(C)c4nc3n(C)c2=N)cc1 | 760 nM
CS(=O)(=O)c1ccc2nc(-c3cc(-c4ccc(OCCN5CCOCC5)cc4)cnc3N)[nH]c2c1 | 1060 nM
